Source: patent publication US12257252B2, “Compositions and methods for increasing tetrahydrobiopterin plasma exposure” (PTC Therapeutics MP, Inc., priority 2018, dated 2025)
Where two headings read alike, the source gives them in different places.

Experiments:
[1] = Food effect on sepiapterin: plasma sepiapterin and BH4 in fasted and fed subjects; type: in vivo; conditions: sepiapterin 10 mg/kg oral
Protocol: Method: Subjects received 2 oral doses of sepiapterin (10 mg/kg) separated by 1 week in a fasted and fed state. Subjects were fed a standard high-fat (approximately 50 percent of total caloric content of the meal) and high-calorie (approximately 800 to 1000 calories) meal starting 30 minutes prior to receiving their second oral dose of sepiapterin on Day 8.
Sampling for PK analysis occurred predose on Days 1 and 8 (within 30 minutes before dosing) and 0.5 hr, 1 hr, 2 hr, 4 hr, 8 hr, 12 hr, and 24 hr after the doses on Days 1 and 8. The blood concentrations of sepiapterin and BH4 were analyzed by MNG Labs.

[2] = type: in vivo
Protocol: Method: Twelve subjects were given a single dose (10 mg/kg) of sepiapterin under fasting conditions and then 7 days later under fed conditions. Standard definitions of adverse events (AE) were used. All-cause AE were those that occurred at any time; treatment-emergent adverse events (TEAE) were those that occurred at or after the time of administration of study treatment. TEAEs related to study drug were based on the opinion of the investigator. Serious AE were defined as life threatening or caused death, hospitalization or prolongation of existing hospitalization, or were a persistent or significant disability/incapacity or a substantial disruption of the ability to conduct normal life functions, or a congenital anomaly/birth defect.

[3] = CSF levels of sepiapterin, BH4, BH2 and neurotransmitter metabolites after sepiapterin; type: in vivo; conditions: 60 mg/kg; Day 1 or Day 7 +/-30 minutes from BH4 Tmax
Protocol: The cerebrospinal fluid (CSF) of selected subjects is collected via lumbar puncture on Day1 (before dose) and on Day 7 (i.e., following daily dosing for 7 days) approximately 30 minutes from time of the maximum observed plasma BH4 concentration (Tmax) as determined from the blood analysis. The cerebral spinal fluid (CSF) is analyzed by MNG Labs. Descriptive statistics are provided to characterize any changes in neurotransmitter metabolism between the Day 1, and Day 7 sample results. Method: Analyses were conducted in CSF samples of subjects administered 60 mg/kg sepiapterin or placebo. The following analytes were measured: sepiapterin, BH4, BH2, homovanillic acid (HVA), and 5-hydroxyindoleacetic acid (HIAA). Descriptive (n, mean, SD, median, minimum, maximum) statistics for these analytes at Day 1 and Day 7+/−30 minutes from Tmax and change from baseline at Day 7 were determined for each analyte.

[4] = Pharmacokinetics of multiple doses of sepiapterin in fed subjects; type: in vivo
Source text: Methods: Three cohorts of eight fed subjects each were randomized to receive once-daily sepiapterin or placebo for 7 days in a 6:2 ratio. A sentinel dose strategy was also used for administration of the highest sepiapterin dose.

For `C[C@H](O)C(=O)C1=Nc2c(nc(N)[nH]c2=O)NC1` [sepiapterin, Sepiapterin], the “Maximum sepiapterin concentration in plasma” value ([1]; fasted, 0 h (predose)) was 0 nM, the “Mean sepiapterin concentration in plasma” value ([1]; fasted, 0 h (predose)) was 0 nM and the “Median sepiapterin concentration in plasma” value ([1]; fasted, 0 h (predose)) was 0 nM. The “Maximum sepiapterin concentration in plasma” value ([1]; fasted, 8 h) was 0 nM, the “Mean sepiapterin concentration in plasma” value ([1]; fasted, 8 h) was 0 nM and the “Median sepiapterin concentration in plasma” value ([1]; fasted, 8 h) was 0 nM. For the same compound, the “Maximum sepiapterin concentration in plasma” value ([1]; fasted, 12 h) was 0 nM, the “Mean sepiapterin concentration in plasma” value ([1]; fasted, 12 h) was 0 nM and the “Median sepiapterin concentration in plasma” value ([1]; fasted, 12 h) was 0 nM. The “Maximum sepiapterin concentration in plasma” value ([1]; fasted, 24 h) was 0 nM, the “Mean sepiapterin concentration in plasma” value ([1]; fasted, 24 h) was 0 nM and the “Median sepiapterin concentration in plasma” value ([1]; fasted, 24 h) was 0 nM. The “Maximum sepiapterin concentration in plasma” value ([1]; fed, 0 h (predose)) was 0 nM, the “Mean sepiapterin concentration in plasma” value ([1]; fed, 0 h (predose)) was 0 nM and the “Median sepiapterin concentration in plasma” value ([1]; fed, 0 h (predose)) was 0 nM. For the same compound, the concentration at 2 h ([1]; fed, 0 h (predose), read-out: Minimum sepiapterin concentration in plasma) was 0 nM, the “Median sepiapterin concentration in plasma” value ([1]; fed, 0.5 h) was 0 nM and the concentration at 2 h ([1]; fed, 0.5 h, read-out: Minimum sepiapterin concentration in plasma) was 0 nM. The concentration at 2 h ([1]; fed, 4 h, read-out: Minimum sepiapterin concentration in plasma) was 0 nM, the “Median sepiapterin concentration in plasma” value ([1]; fed, 8 h) was 0 nM and the concentration at 2 h ([1]; fed, 8 h, read-out: Minimum sepiapterin concentration in plasma) was 0 nM. The “Maximum sepiapterin concentration in plasma” value ([1]; fed, 12 h) was 0 nM, the “Mean sepiapterin concentration in plasma” value ([1]; fed, 12 h) was 0 nM and the “Median sepiapterin concentration in plasma” value ([1]; fed, 12 h) was 0 nM. For the same compound, the concentration at 2 h ([1]; fed, 12 h, read-out: Minimum sepiapterin concentration in plasma) was 0 nM, the “Maximum sepiapterin concentration in plasma” value ([1]; fed, 24 h) was 0 nM and the “Mean sepiapterin concentration in plasma” value ([1]; fed, 24 h) was 0 nM. For the same compound, the “Median sepiapterin concentration in plasma” value ([1]; fed, 24 h) was 0 nM, the concentration at 2 h ([1]; fed, 24 h, read-out: Minimum sepiapterin concentration in plasma) was 0 nM and the concentration at 0 h ([1]; human, plasma, fasted, 0 h (predose), read-out: Minimum sepiapterin concentration in plasma) was 0 nM. For the same compound, the concentration at 0.5 h ([1]; human, plasma, fasted, 0.5 h, read-out: Minimum sepiapterin concentration in plasma) was 0 nM, the concentration at 4 h ([1]; human, plasma, fasted, 4 h, read-out: Minimum sepiapterin concentration in plasma) was 0 nM and the concentration at 8 h ([1]; human, plasma, fasted, 8 h, read-out: Minimum sepiapterin concentration in plasma) was 0 nM. For the same compound, the concentration at 12 h ([1]; human, plasma, fasted, 12 h, read-out: Minimum sepiapterin concentration in plasma) was 0 nM, the concentration at 24 h ([1]; human, plasma, fasted, 24 h, read-out: Minimum sepiapterin concentration in plasma) was 0 nM and the concentration at 1 h ([1]; human, plasma, fed, 1 h, read-out: Minimum sepiapterin concentration in plasma) was 0 nM. The concentration at 2 h ([1]; human, plasma, fed, 2 h, read-out: Minimum sepiapterin concentration in plasma) was 0 nM, the “Geometric mean ratio (fasted/fed, 90% CI) for plasma sepiapterin AUClast” value ([1]; fasted/fed) was 1.29 (0.84 to 2.00) and the “Geometric mean ratio (fasted/fed, 90% CI) for plasma sepiapterin Cmax” value ([1]; fasted/fed) was 1.57 (1.21 to 2.0). For the same compound, the “Cmax of BH4 in the plasma, fed compared to fasted” value ([1]; fed vs fasted) was “much higher”, the “Cmax of sepiapterin in the plasma, fed compared to fasted” value ([1]; fed vs fasted) was “much lower” and the TEAE ([2]; human, in vivo, 10 mg/kg) was 4. The “TEAE related to study drug” value ([2]; human, in vivo, 10 mg/kg) was 1, the “≥1 AE” value ([2]; human, in vivo, 10 mg/kg) was 5 and the “Incidence of adverse events, fed compared to fasted subjects” value ([2]; single dose 10 mg/kg, fed vs fasted) was “decreased incidence of adverse events”. For the same compound, the “Sepiapterin in the CSF” value [3] was “not detected”, the AUC0-24 of sepiapterin ([4]; Day 7, 60 mg/kg once daily) was 23 ng·h/mL and the “Drug accumulation (plasma sepiapterin and BH4 after 1 and 7 days of treatment)” value ([4]; once daily for 7 days) was “no drug accumulation”.
